Where “and” joins values, the source holds several entries; their conditions need not be identical. Equal values may be shown once. Inconclusive results and toxic doses are left out. Cut-off read from the data, not from the text of the source: active = T/C of 150% or more; inactive = T/C below 125%.
Tested on: L1210 leukemia ip in BDF1 mice, survival T/C
Experiment: NCI In Vivo Anticancer Drug Screen. Data for tumor model L1210 Leukemia (intraperitoneal) in B6D2F1 (BDF1) mice
Conditions: endpoint: mean survival time, higher = longer survival
Summary of the method: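 Value reflects the ratio of survival in compound-treated mice to survival in vehicle-treated controls, with both groups carrying the same transplanted tumor.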

[1] = dose: 25.0 mg/kg/injection, schedule: Q04DX003 (ip), vehicle: Klucel (hydroxypropylcellulose) (HPC)
[2] = dose: 50.0 mg/kg/injection, schedule: Q04DX003 (ip), vehicle: Klucel (hydroxypropylcellulose) (HPC)
[3] = dose: 100.0 mg/kg/injection, schedule: Q04DX003 (ip), vehicle: Klucel (hydroxypropylcellulose) (HPC)
[4] = dose: 100.0 mg/kg/injection, schedule: Q04DX002 (ip), vehicle: Klucel (hydroxypropylcellulose) (HPC)
[5] = dose: 200.0 mg/kg/injection, schedule: Q04DX002 (ip), vehicle: Klucel (hydroxypropylcellulose) (HPC)
[6] = dose: 400.0 mg/kg/injection, schedule: Q04DX002 (ip), vehicle: Klucel (hydroxypropylcellulose) (HPC)
[7] = dose: 6.25 mg/kg/injection, schedule: Q04DX003 (ip), vehicle: saline with Tween-80
[8] = dose: 12.5 mg/kg/injection, schedule: Q04DX003 (ip), vehicle: saline with Tween-80
[9] = dose: 25.0 mg/kg/injection, schedule: Q04DX003 (ip), vehicle: saline with Tween-80
[10] = dose: 50.0 mg/kg/injection, schedule: Q01DX001 (ip), vehicle: saline
[11] = dose: 100.0 mg/kg/injection, schedule: Q01DX001 (ip), vehicle: saline
[12] = dose: 200.0 mg/kg/injection, schedule: Q01DX001 (ip), vehicle: saline
[13] = dose: 400.0 mg/kg/injection, schedule: Q01DX001 (ip), vehicle: saline
[14] = dose: 100.0 mg/kg/injection, schedule: Q04DX003 (ip), vehicle: saline with Tween-80
[15] = dose: 200.0 mg/kg/injection, schedule: Q04DX003 (ip), vehicle: saline with Tween-80
[16] = dose: 400.0 mg/kg/injection, schedule: Q04DX003 (ip), vehicle: saline with Tween-80
[17] = dose: 200.0 mg/kg/injection, schedule: Q04DX003 (ip), vehicle: Klucel (hydroxypropylcellulose) (HPC)
[18] = dose: 400.0 mg/kg/injection, schedule: Q04DX003 (ip), vehicle: Klucel (hydroxypropylcellulose) (HPC)
[19] = dose: 25.0 mg/kg/injection, schedule: Q01DX009 (ip), vehicle: saline
[20] = dose: 50.0 mg/kg/injection, schedule: Q01DX009 (ip), vehicle: saline
[21] = dose: 100.0 mg/kg/injection, schedule: Q01DX009 (ip), vehicle: Klucel (hydroxypropylcellulose) (HPC)
[22] = dose: 200.0 mg/kg/injection, schedule: Q01DX009 (ip), vehicle: Klucel (hydroxypropylcellulose) (HPC)
[23] = dose: 400.0 mg/kg/injection, schedule: Q01DX009 (ip), vehicle: Klucel (hydroxypropylcellulose) (HPC)
[24] = dose: 100.0 mg/kg/injection, schedule: Q04DX003 (ip), vehicle: saline
[25] = dose: 200.0 mg/kg/injection, schedule: Q04DX003 (ip), vehicle: saline
[26] = dose: 400.0 mg/kg/injection, schedule: Q04DX003 (ip), vehicle: saline
[27] = dose: 100.0 mg/kg/injection, schedule: Q01DX009 (ip), vehicle: saline
[28] = dose: 200.0 mg/kg/injection, schedule: Q01DX009 (ip), vehicle: saline
[29] = dose: 400.0 mg/kg/injection, schedule: Q01DX009 (ip), vehicle: saline
[30] = dose: 100.0 mg/kg/injection, schedule: Q01DX009 (ip), vehicle: saline with Tween-80
[31] = dose: 100.0 mg/kg/injection, schedule: Q04DX002 (ip), vehicle: saline with Tween-80

Measured: T/C

[O-][n+]1onc2ncccc21
inactive: [1] 108 % of control | [2] 94 % of control | [3] 100 % of control and 102 % of control

O=C(OCCl)c1ccc(Cl)c(Cl)c1
inactive: [1] 95 % of control | [2] 98 % of control | [3] 101 % of control

Cc1cc(C)c(NC(=O)Nc2ccc(Cl)c(Cl)c2)cc1C
inactive: [4] 93 % of control | [5] 96 % of control | [6] 93 % of control

NC(=S)N/N=C\c1ccccn1
inactive: dose: 6.25 mg/kg/injection, schedule: Q01DX009 (ip), vehicle: saline with Tween-80 123 % of control | [7] 103 % of control | [8] 102 % of control | [9] 98 % of control
active: dose: 8.0 mg/kg/injection, schedule: Q01DX009 (ip), vehicle: saline with Tween-80 160 % of control | dose: 12.0 mg/kg/injection, schedule: Q01DX009 (ip), vehicle: saline with Tween-80 165 % of control

Cc1cc2c(C)c3nc4ccccc4c3c(C)c2c[nH]1
inactive: [10] 107 % of control | [11] 98 % of control | [12] 101 % of control | [13] 107 % of control | dose: 800.0 mg/kg/injection, schedule: Q01DX001 (ip), vehicle: saline 110 % of control | dose: 1600.0 mg/kg/injection, schedule: Q01DX001 (ip), vehicle: saline 118 % of control

CC(=O)C(c1ccccc1)(c1ccccc1)c1ccccc1
inactive: [14] 96 % of control | [15] 93 % of control | [16] 91 % of control

COC1=C(NC(C)c2ccccc2)C(=O)C(OC)=C(NC(C)c2ccccc2)C1=O (configuration not stated)
inactive: dose: 50.0 mg/kg/injection, schedule: Q01DX001 (ip), vehicle: carboxymethylcellulose (CMC) 96 % of control | dose: 200.0 mg/kg/injection, schedule: Q01DX001 (ip), vehicle: carboxymethylcellulose (CMC) 89 % of control

C[Si](C)(CCCC(N)C(=O)O)O[Si](C)(C)CCCC(N)C(=O)O (configuration not stated)
inactive: [3] 98 % of control | [17] 100 % of control | [18] 98 % of control

CNC(C)COc1ccccc1 (configuration not stated)
inactive: [19] 101 % of control | [9] 94 % of control | [20] 98 % of control | dose: 50.0 mg/kg/injection, schedule: Q04DX003 (ip), vehicle: saline with Tween-80 91 % of control | [14] 95 % of control

COc1cccc(C(=O)O)c1C(=O)c1ccc(C)cc1O
inactive: [14] 100 % of control | [15] 97 % of control | [16] 90 % of control

Oc1ccc(-c2nc3ccccc3nc2-c2ccc(O)cc2O)c(O)c1
inactive: [11] 96 % of control | [12] 93 % of control | [13] 96 % of control

O=C(O)c1c(Br)c(Br)c(Br)c(Br)c1C(=O)Nc1ccc(Cl)cc1C(F)(F)F
inactive: [21] 101 % of control | [22] 112 % of control | [23] 102 % of control

N=c1ccccn1CC(Cl)COc1ccccc1 (configuration not stated)
inactive: [11] 104 % of control

CSc1ncnc2c1ncn2C1CCCO1 (configuration not stated)
inactive: dose: 37.5 mg/kg/injection, schedule: Q01DX Z (ip), vehicle: methylcellulose (MC) 101 % of control | dose: 75.0 mg/kg/injection, schedule: Q01DX Z (ip), vehicle: methylcellulose (MC) 111 % of control

CCCCCCCCOP(OCCCCCCCC)OCCCCCCCC
inactive: [24] 95 % of control | [25] 98 % of control | [26] 104 % of control

Fc1ccc(NC(=S)S)cc1
inactive: [7] 94 % of control | [8] 99 % of control | [9] 91 % of control

[NH-]S(=O)(=O)O.[NH-]S(=O)(=O)O.[NH2-].[NH2-].[Pt+4]
inactive: dose: 10.0 mg/kg/injection, schedule: Q01DX009 (ip), vehicle: saline with Tween-80 100 % of control | dose: 20.0 mg/kg/injection, schedule: Q01DX009 (ip), vehicle: saline with Tween-80 90 % of control | dose: 40.0 mg/kg/injection, schedule: Q01DX009 (ip), vehicle: saline with Tween-80 100 % of control

CCCSCCCC(=O)O
inactive: [21] 88 % of control | [22] 97 % of control

COc1ccc2nc(C)c(COC(C)=O)c(Cl)c2c1
inactive: [27] 102 % of control | [24] 100 % of control | [28] 92 % of control | [25] 96 % of control | [29] 97 % of control | [26] 112 % of control

NCC(OC1CCCCC1)C(Cl)(Cl)Cl (configuration not stated)
inactive: dose: 50.0 mg/kg/injection, schedule: Q01DX009 (ip), vehicle: saline with Tween-80 92 % of control | [30] 97 % of control

Cc1ccc(S(=O)(=O)NNC(=O)c2ccc(-c3ccc[nH]3)[nH]2)cc1
inactive: dose: 75.0 mg/kg/injection, schedule: Q01DX001 (ip), vehicle: saline 93 % of control | dose: 150.0 mg/kg/injection, schedule: Q01DX001 (ip), vehicle: saline 92 % of control | dose: 300.0 mg/kg/injection, schedule: Q01DX001 (ip), vehicle: saline 98 % of control

O=c1c2ncn(C3OC(CO)C(O)C3O)c2nc2nc[nH]n12 (configuration not stated)
inactive: dose: 100.0 mg/kg/injection, schedule: Q01DX005 (ip), vehicle: saline 93 % of control | dose: 200.0 mg/kg/injection, schedule: Q01DX005 (ip), vehicle: saline 98 % of control

CCCCc1cn(C(=O)CCCl)nn1
inactive: [31] 100 % of control | dose: 200.0 mg/kg/injection, schedule: Q04DX002 (ip), vehicle: saline with Tween-80 100 % of control

CCCCNC(C)(C)C(SC(C)=O)c1ccc(Cl)cc1 (configuration not stated)
inactive: [30] 89 % of control

Cc1cc(=O)[nH]c(N/N=C/c2ccco2)n1
inactive: dose: 50.0 mg/kg/injection, schedule: Q01DX009 (ip), vehicle: Klucel (hydroxypropylcellulose) (HPC) 96 % of control | [21] 96 % of control | [3] 87 % of control | [22] 95 % of control | [17] 90 % of control

CN(C)CCC(N)c1cccc2ccccc12 (configuration not stated)
inactive: dose: 25.0 mg/kg/injection, schedule: Q04DX002 (ip), vehicle: saline with Tween-80 91 % of control | dose: 50.0 mg/kg/injection, schedule: Q04DX002 (ip), vehicle: saline with Tween-80 116 % of control | [31] 98 % of control

CC(=O)/C(C)=N/O
inactive: [11] 98 % of control | [12] 98 % of control | [13] 96 % of control

CCN(CC)CCCOC(=O)c1ccc(NC(C)(C)[N+](=O)[O-])cc1
inactive: [19] 98 % of control | [20] 91 % of control | [11] 90 % of control

Cc1cccc(NC(=O)COc2ccc(Cl)cc2)c1C
inactive: [21] 97 % of control | [3] 92 % of control | [22] 94 % of control | [17] 95 % of control | [23] 97 % of control | [18] 96 % of control

CC1CN(C(=S)Nc2cccc3ccccc23)CC(C)O1 (configuration not stated)
inactive: [21] 100 % of control | [22] 97 % of control | [23] 95 % of control

CC(=O)Nc1ccc(C(=O)O)c([N+](=O)[O-])c1
inactive: [27] 100 % of control | [24] 104 % of control | [28] 94 % of control | [25] 104 % of control | [29] 93 % of control | [26] 94 % of control

C#CCSC(=N)N
inactive: [19] 101 % of control | [20] 93 % of control | [24] 103 % of control

C1C[S+]2CCN1CC2
inactive: [10] 95 % of control

CCN(CC)P(=O)(OCC(C)C(C)=O)N(CCCl)CCCl (configuration not stated)
inactive: dose: 100.0 mg/kg/injection, schedule: Q04DX003 (ip), vehicle: DMSO 115 % of control | dose: 200.0 mg/kg/injection, schedule: Q04DX003 (ip), vehicle: DMSO 113 % of control | dose: 400.0 mg/kg/injection, schedule: Q04DX003 (ip), vehicle: DMSO 112 % of control

COC(=O)C(=O)CC(=O)c1ccccc1
inactive: [4] 116 % of control | [5] 106 % of control | [6] 118 % of control
